Source: patent US11427548B2 (Arvinas Operations, Inc., priority 2015, dated 2022)
Read-outs that look alike come from different tables or passages of the source.

Target: T1, Androgen Receptor (Homo sapiens, UniProt P10275)
T1 construct: endogenous in cells; host or cells: VCaP cells
T1 sequence (P10275 1-920): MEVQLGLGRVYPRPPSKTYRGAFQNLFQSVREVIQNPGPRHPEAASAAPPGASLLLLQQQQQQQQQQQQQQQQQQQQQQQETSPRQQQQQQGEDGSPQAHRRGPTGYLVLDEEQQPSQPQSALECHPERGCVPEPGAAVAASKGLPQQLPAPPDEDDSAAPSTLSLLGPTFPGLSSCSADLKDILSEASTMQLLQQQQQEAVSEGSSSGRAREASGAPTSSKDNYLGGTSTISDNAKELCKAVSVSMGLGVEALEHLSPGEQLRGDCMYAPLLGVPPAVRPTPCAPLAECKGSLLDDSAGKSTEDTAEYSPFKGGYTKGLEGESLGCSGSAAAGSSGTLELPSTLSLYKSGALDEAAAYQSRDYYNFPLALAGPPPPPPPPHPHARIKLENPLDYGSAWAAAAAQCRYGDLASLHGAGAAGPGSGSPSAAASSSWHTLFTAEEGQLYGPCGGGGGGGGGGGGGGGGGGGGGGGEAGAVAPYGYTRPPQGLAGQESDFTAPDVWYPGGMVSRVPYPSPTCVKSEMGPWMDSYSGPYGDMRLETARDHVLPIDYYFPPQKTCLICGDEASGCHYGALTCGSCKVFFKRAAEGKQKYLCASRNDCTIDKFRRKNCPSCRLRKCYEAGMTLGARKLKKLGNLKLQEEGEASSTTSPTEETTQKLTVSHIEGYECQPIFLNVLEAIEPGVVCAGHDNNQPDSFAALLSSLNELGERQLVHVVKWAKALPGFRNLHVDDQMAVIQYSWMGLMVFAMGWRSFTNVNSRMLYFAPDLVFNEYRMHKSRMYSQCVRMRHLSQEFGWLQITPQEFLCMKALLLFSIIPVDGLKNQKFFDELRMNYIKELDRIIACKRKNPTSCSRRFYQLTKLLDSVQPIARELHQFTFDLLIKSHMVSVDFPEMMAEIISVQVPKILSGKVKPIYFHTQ
Assay: Androgen Receptor ELISA assay (PathScan AR ELISA) in VCaP cells: AR degradation, Dmax and DC50
Assay type: cell-based
Protocol: 1. Androgen Receptor ELISA Assay.
The protocols used with VCaP cells are described below. The androgen receptor ELISA assay was performed using PathScan AR ELISA (Cell Signaling Catalog #12850) according to the following assay steps:
VCaP cells are seeded at 30,000 cells/well at a volume of 200 μL/well in VCaP assay medium [Phenol red free RPMI (Gibco Cat #11835-030); 5% Charcoal Stripped (Dextran treated) FBS (Omega Scientific, Cat #FB-04); Pen/Strep Life Technologies (Gibco Cat #: 10378-016); 0.1 nM R1881 (Sigma, Cat #R0908) is added upon the start of the assay, not during initial plating of the cells) in Corning 3904 plates. The cells are grown for a minimum of 3 days.
First, cells are dosed with compounds diluted in 0.1% DMSO—use a polypropylene plate according to the following protocol: (1)(i) make 1000× stock plate in DMSO; (ii) 20 mM stock diluted 1/6.7 with DMSO (5 μL+28.3 μL DMSO)=3 mM into row H; (iii) perform serial dilutions in ½ log doses (10 μL of PROTAC+20 μL DMSO) from row H towards row B. Reserve row A for DMSO; (iv) 7 doses total (final concentration in this 1000× plate will be 3 mM, 1 mM, 333 μM, 111 μM, etc). (2)(i) Make 10× stock plate in media; (ii) transfer 2.5 μL of the 1000× stock to a new 10× stock plate (use 12 channel pipet, start at A (DMSO control) work thru H. When 247.5 μL of media is added to this plate, it will serve as a 10× stock; (iii) make media+1 nM R1881 for making 10× stock plate; (iv) add 247.5 μL of media with 1 nM R1881 to each well of the 10× stock plate, mix.
Then 22 μL of 10× stock is added to cells and incubated for 24 h. 1× Cell Signaling Cell lysis buffer is made (Catalogue #9803; comes with the kit)—prepare for 50 μL/well. Keep on ice. Media is aspirated, and 50 μL 1× cell lysis buffer/well is added. The cells are placed on ice for 10 minutes. The solution is mixed and transferred to PCR plate, and centrifuged at 4C for 10 minutes at 4000 rpm.
5 μL is transferred to fresh plate (use immediately or freeze −80 C); 115 μL ELISA Dilutant is added (0.15 ug/ml-0.075 ug/ml; comes with the PathScan ELISA).
Add 100 μL/well AR Elisa; cover and shake, 37 C for 2 hrs; dump, tap, wash 4×200 μL ELISA wash buffer; add 100 μL/well mouse AR detection Ab; cover and shake, 37 C for 1 hr; dump, tap, wash 4×200 μL ELISA wash buffer; add 100 μL/well anti-mouse—HRP conjugated Ab (comes with the kit); cover and shake, 37 C for 30 min; allow TMB reagent to come to room temperature; dump, tap, wash 4×200 μL Elisa wash buffer; tap; add 100 μL TMB, shake 5 min—while watching color. Add the stop reagent when light blue color develops. Add 100 μL Stop solution; shake and read at 450 nm.

[1] = read-out: VCaP DC50; concentration that caused 50% Androgen Receptor degradation, VCaP cells (Table 32)
[2] = VCaP cells; Table 36; read-out: VCaP DC50

Row | Structure (SMILES) | DC50 [2] | Dmax (VCaP, read-out: VCaP Dmax (%)) | DC50 [1] | other results
1 | CC(C)(C)[C@H](NC(=O)COCCCCOc1ccc(-c2ccc(N3C(=S)N(c4ccc(C#N)c(Cl)c4)C(=O)C3(C)C)cc2)cc1)C(=O)N1C[C@H](O)C[C@H]1C(=O)NCc1ccc(-c2cnco2)cc1 [Example 94, (2S,4R)-1-[(2S)-2-{2-[4-(4-{4-[3-(3-chloro-4-cyanophenyl)-5,5-dimethyl-4-oxo-2-sulfanylideneimidazolidin-1-yl]phenyl}phenoxy)butoxy]acetamido}-3,3-dimethylbutanoyl]-4-hydroxy-N-{[4-(1,3-oxazol-5-yl)phenyl]methyl}pyrrolidine-2-carboxamide] |  | > 71% | < 50 nM | 
2 | Cc1ncsc1-c1ccc([C@H](C)NC(=O)[C@@H]2C[C@@H](O)CN2C(=O)[C@@H](NC(=O)CN2CCN(CCCc3ccc(C(=O)N[C@H]4C(C)(C)[C@H](Oc5ccc(C#N)c(C#N)c5)C4(C)C)cc3)CC2)C2COC2)cc1 [Example 746, (2S,4R)-1-((S)-2-(2-(4-(3-(4-(((1r,3r)-3-(3,4-dicyanophenoxy)-2,2,4,4-tetramethylcyclobutyl)carbamoyl)phenyl)propyl)piperazin-1-yl)acetamido)-2-(oxetan-3-yl)acetyl)-4-hydroxy-N-((S)-1-(4-(4-methylthiazol-5-yl)phenyl)ethyl)pyrrolidine-2-carboxamide] | > 501 nM |  |  | Dmax (VCaP, read-out: VCaP Dmax (%), VCaP cells; Table 36): < 25%
3 | Cc1ncsc1-c1ccc(CNC(=O)[C@@H]2C[C@@H](O)CN2C(=O)[C@@H](NC(=O)COCCCCNc2ccc(-c3ccc(N4C(=S)N(c5ccc(C#N)c(C(F)(F)F)c5)C(=O)C4(C)C)cc3)cc2)C(C)(C)C)cc1 [Example 103, (2S,4R)-1-[(2S)-2-[2-(4-{[4-(4-{3-[4-cyano-3-(trifluoromethyl)phenyl]-5,5-dimethyl-4-oxo-2-sulfanylideneimidazolidin-1-yl}phenyl)phen-yl]amino}butoxy)acetamido]-3,3-dimethylbutanoyl]-4-hydroxy-N-{[4-(4-methyl-1,3-thiazol-5-yl)phenyl]methyl}pyrrolidine-2-carboxamide] |  | > 71% | < 50 nM | 
4 | Cc1ncoc1-c1ccc(CNC(=O)[C@@H]2C[C@@H](O)CN2C(=O)[C@@H](NC(=O)COCCCCCOc2ccc(C(=O)N[C@H]3C(C)(C)[C@H](Oc4ccc(C#N)c(C(F)(F)F)c4)C3(C)C)cc2)C(C)(C)C)cc1 [Example 154, (2S,4R)-1-[(2S)-3,3-dimethyl-2-(2-{[5-(4-{[trans--3-[4-cyano-3-(trifluoromethyl)phenoxy]-2,2,4,4-tetramethylcyclobutyl]carbamoyl}phen-oxy)pentyl]oxy}acetamido)butanoyl]-4-hydroxy-N-{[4-(4-methyl-1,3-oxazol-5-yl)phenyl]methyl}pyrrolidine-2-carboxamide] |  |  |  | Dmax (VCaP, highest percentage of Androgen Receptor degradation observed, VCaP cells (Table 32); read-out: VCaP Dmax (%)): > 71%; DC50 (concentration that caused 50% Androgen Receptor degradation, VCaP cells (Table 32); read-out: VCaP DC50): < 50 nM
5 | Cc1ncsc1-c1ccc(CNC(=O)[C@@H]2C[C@@H](O)CN2C(=O)[C@@H](NC(=O)CN2CCN(CCCc3cn(-c4ccc(C(=O)N[C@H]5C(C)(C)[C@H](Oc6ccc(C#N)c(C(F)(F)F)c6)C5(C)C)cc4)nn3)CC2)C(C)(C)C)cc1 [Example 710, (2S,4R)-1-((S)-2-(2-(4-(3-(1-(4-(((1r,3r)-3-(4-cyano-3-(trifluoromethyl)phenoxy)-2,2,4,4-tetramethylcyclobutyl)carbamoyl)phenyl)-1H-1,2,3-triazol-4-yl)propyl)piperazin-1-yl)acetamido)-3,3-dimethylbutanoyl)-4-hydroxy-N-(4-(4-methylthiazol-5-yl)benzyl)pyrrolidine-2-carboxamide] | < 50 nM | 51 to 70% |  | 
6 | Cc1ncsc1-c1ccc(CNC(=O)[C@@H]2C[C@@H](O)CN2C(=O)[C@@H](NC(=O)COCCCCOc2ccc(-c3ccc(N4C(=S)N(c5ccc(C#N)c(Cl)c5)C(=O)C4(C)C)cc3)cc2)C(C)(C)C)cc1 [Example 112, (2S,4R)-1-[(2S)-2-{2-[4-(4-{4-[3-(3-chloro-4-cyanophenyl)-5,5-dimethyl-4-oxo-2-sulfanylideneimidazolidin-1-yl]phenyl}phen-oxy)butoxy]acetamido}-3,3-dimethylbutanoyl]-4-hydroxy-N-{[4-(4-methyl-1,3-thiazol-5-yl)phenyl]methyl}pyrrolidine-2-carboxamide] |  | > 71% | < 50 nM | 
7 | Cc1ncsc1-c1ccc([C@@H](NC(=O)[C@@H]2C[C@@H](O)CN2C(=O)C(NC(=O)COCCN2CCN(c3ccc(C(=O)N[C@H]4C(C)(C)[C@H](Oc5ccc(C#N)c(C(F)(F)F)c5)C4(C)C)cn3)CC2)C(C)(C)C)C2COC2)cc1 (stereo partly drawn) [Example 705, N-((1r,3r)-3-(4-cyano-3-(trifluoromethyl)phenoxy)-2,2,4,4-tetramethylcyclobutyl)-6-(4-(2-(2-(((S)-1-((2S,4R)-4-hydroxy-2-(((S)-(4-(4-methylthiazol-5-yl)phenyl)(oxetan-3-yl)methyl)carbamoyl)pyrrolidin-1-yl)-3,3-dimethyl-1-oxobutan-2-yl)amino)-2-oxoethoxy)ethyl)pipera-zin-1-yl)nicotinamide] | < 50 nM |  |  | Dmax (VCaP, VCaP cells; Table 36; read-out: VCaP Dmax (%)): 26 to 50%
8 | Cc1ncsc1-c1ccc(CNC(=O)[C@@H]2C[C@@H](O)CN2C(=O)[C@@H](NC(=O)COCCNc2ccc(-c3ccc(C(=O)N[C@H]4C(C)(C)[C@H](Oc5ccc(C#N)c(Cl)c5)C4(C)C)cc3)cn2)C(C)(C)C)cc1 [Example 553] |  |  |  | DC50 (VCaP cells; Table 35; read-out: VCaP DC50): < 50 nM; Dmax (VCaP, VCaP cells; Table 35; read-out: VCaP Dmax (%)): > 71%
9 | Cc1ncsc1-c1ccc(CNC(=O)[C@@H]2C[C@@H](O)CN2C(=O)[C@@H](NC(=O)CNC(=O)CCCOc2ccc(C(=O)N[C@H]3C(C)(C)[C@H](Oc4ccc(C#N)c(Cl)c4)C3(C)C)cc2)C(C)(C)C)cc1 [Example 393] |  |  |  | DC50 (VCaP cells; Table 34; read-out: VCaP DC50): < 50 nM; Dmax (VCaP, VCaP cells; Table 34; read-out: VCaP Dmax (%)): 51 to 70%
10 | Cc1ncsc1-c1ccc([C@H](CO)NC(=O)[C@@H]2C[C@@H](O)CN2C(=O)[C@@H](NC(=O)CN2C3CCC2CN(CCCCc2ccc(C(=O)N[C@H]4C(C)(C)[C@H](Oc5ccc(C#N)c(Cl)c5)C4(C)C)cc2)C3)C(C)(C)C)cc1 [Example 836, (2S,4R)-1-((2S)-2-(2-(3-(4-(4-(((1r,3r)-3-(3-chloro-4-cyanophenoxy)-2,2,4,4-tetramethylcyclobutyl)carbamoyl)phenyl)butyl)-3,8-diazabicyclo[3.2.1]octan-8-yl)acetamido)-3,3-dimethylbutanoyl)-4-hydroxy-N-((R)-2-hydroxy-1-(4-(4-methylthiazol-5-yl)phenyl)ethyl) pyrrolidine-2-carboxamide] |  | > 71% |  | DC50 (read-out: VCaP DC50; VCaP cells; Table 36): < 50 nM
